Measurements published in US12653191B2, “Active compound combinations” (Bayer Aktiengesellschaft, priority 2020, dated 2026).
“And” between values parts separate entries of the source, which are not always exact repeats. Equal entries are not always repeated. Where two headings read alike, the source gives them in different places.

Tests used:
[1] = test system: Alternaria alternate; experiment: in vitro-Test with fungal microorganisms, Method A (tables A1-A12); format: cell-based, Alternaria alternata; conditions: Alternaria, applied alone, read-out: Efficacy %
How it was run: (§1)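 Test compound in methanol plus alkylaryl-polyglycol-ether emulsifier was dried into wells, then liquid potato dextrose medium containing spores or mycelium of the fungus was added. Plates were incubated at 20° C and 85% relative humidity; growth read at 620 nm after 3-5 days, efficacy relative to untreated control.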

[2] = test system: Alternaria alternata; experiment: in vitro-Test with fungal microorganisms, Method B (tables A13-A22); format: cell-based
How it was run: (§2)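 Cpd in MeOH + alkylaryl-polyglycol-ether, solvent evaporated; liquid medium + fungal spores/mycelium added; OD600 read; 3–7 d, 20° C., 85% RH; growth inhibition by photometry, % efficacy vs untreated ctrl.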

[3] = test system: Botrytis cinerea; experiment: in vitro-Test with fungal microorganisms, Method A (tables B1-B14); format: cell-based
How it was run: as §1

[4] = test system: Botrytis cinerea; experiment: in vitro-Test with fungal microorganisms, Method B (tables B15-B18); format: cell-based
How it was run: as §2

[5] = test system: Cercospora beticola; experiment: in vitro-Test with fungal microorganisms, Method A (tables C1-C10); format: cell-based; conditions: for inhibition of growth at 0.8 ppm / inhibition of growth at 4 ppm: Cercospora beticola, read-out: Efficacy %
How it was run: as §1

[6] = test system: Colletotrichum lindemuthianum; experiment: in vitro-Test with fungal microorganisms, Method A (tables D1-D8); format: cell-based
How it was run: as §1

[7] = test system: Cordana musae; experiment: in vitro-Test with fungal microorganisms, Method A (tables E1-E8); format: cell-based; conditions: for inhibition of growth at 4 ppm / inhibition of growth at 20 ppm: Neocordana musae, read-out: Efficacy %
How it was run: as §1

[8] = test system: Cordana musae; experiment: in vitro-Test with fungal microorganisms, Method B (tables E9-E16); format: cell-based; conditions: single active
How it was run: as §2

[9] = test system: Diaporthe citri; experiment: in vitro-Test with fungal microorganisms, Method A (tables F1-F11); format: cell-based
How it was run: as §1

[10] = test system: Fusarium culmorum; experiment: in vitro-Test with fungal microorganisms, Method B (tables G5-G15); format: cell-based
How it was run: as §2

[11] = test system: Parastagonospora nodorum; experiment: in vitro-Test with fungal microorganisms, Method A (tables H1-H4); format: cell-based
Experimental: Example: In Vitro-Test with Fungal Microorganisms
Wells of 96-well microtiter plates are filled with 10 μl of a preparation of test compound or compound combination in methanol+emulsifier alkylaryl-polyglycol-ether. Thereafter, the solvent is evaporated in a hood. At the next step, 100 μl of liquid potato dextrose medium is given into each well, that has been amended with an appropriate concentration of spores or mycelium suspension of the test fungus.
With the aid of a photometer, the extinction in all wells is measured at the wavelength of 620 nm.
The microtiter plates are incubated at 20° C. and 85% relative humidity. The inhibition of growth is determined again photometrically 3-5 days after the application. Efficacy is calculated in relation to the untreated control, 0% efficacy means fungal growth as high as in untreated control while 100% efficacy means no fungal growth is measured.
The data in tables A1 to A12, B1 to B14, C1 to C10, D1 to D8, E1 to E8, F1 to F11, G1 to G4, H1 to H4 and I1 to I5 were collected according to Method A. The data in tables A13 to A22, B15 to B18, C11 to C20, E9 to E16, F12 to F15, G5 to G15, H5 to H8, I6 to I11 and J1 to J11 were collected according to Method B.

[12] = test system: Ustilago segetum var. avenae; experiment: in vitro-Test with fungal microorganisms, Method B (tables I6-I11); format: cell-based; conditions: read-out: Efficacy %
How it was run: as §2

[13] = test system: Colletotrichum coccodes; experiment: in vitro-Test with fungal microorganisms, Method B (tables J1-J11); format: cell-based
How it was run: as §2

[14] = test system: Cercospora beticola; experiment: in vitro-Test with fungal microorganisms, Method B (tables C11-C20); format: cell-based; conditions: single compound, 0.8 ppm
How it was run: as §2

[15] = test system: Diaporthe citri; experiment: in vitro-Test with fungal microorganisms, Method B (tables F12-F15); format: cell-based; conditions: Table F14
How it was run: as §2

[16] = test system: Ustilago segetum var. avenae; experiment: in vitro-Test with fungal microorganisms, Method A (tables I1-I5); format: cell-based; conditions: alone
How it was run: as §1

[17] = Diaporthe citri, applied alone, read-out: Efficacy
[18] = Diaporthe citri, single active, read-out: Efficacy

In the case of `Cc1cc(C)nc(Nc2ccccc2)n1` [(7.005) pyrimethanil, pyrimethanil], the inhibition of growth at 4 ppm ([1]; 4 ppm) is reported as 93%, the inhibition of growth at 20 ppm ([1]; 20 ppm) is reported as 82% and the inhibition of growth at 0.8 ppm ([2]; Alternaria alternata, 0.8 ppm, read-out: Efficacy) is reported as 96%. The inhibition of growth at 0.8 ppm ([2]; Alternaria alternata, single compound, 0.8 ppm, read-out: Efficacy) was 96%, the inhibition of growth at 20 ppm ([2]; Alternaria alternata, single compound, 20 ppm, read-out: Efficacy) was 100% and the inhibition of growth at 4 ppm ([3]; Botrytis cinerea, 4.0 ppm, read-out: Efficacy) was 100%. For the same compound, the inhibition of growth at 20 ppm ([3]; Botrytis cinerea, 20.0 ppm, read-out: Efficacy) was 100%, the inhibition of growth at 0.8 ppm ([3]; Botrytis cinerea, alone, 0.8 ppm, read-out: Efficacy %) was 100% and the inhibition of growth at 4 ppm ([3]; Botrytis cinerea, alone, 4.0 ppm, read-out: Efficacy %) was 100%. It also gave an inhibition of growth at 20 ppm ([3]; Botrytis cinerea, alone, 20.0 ppm, read-out: Efficacy %) of 100%, an inhibition of growth at 0.8 ppm ([4]; Botrytis cinerea, 0.8 ppm alone, read-out: Efficacy %) of 89% and an inhibition of growth at 4 ppm ([4]; Botrytis cinerea, 4 ppm alone, read-out: Efficacy %) of 95%. The Efficacy % ([5]; 20.0 ppm) was 100%, the inhibition of growth at 0.8 ppm ([5]; 0.8 ppm alone) was 10% and the inhibition of growth at 0.8 ppm ([5]; 0.8 ppm) was 20%. For the same compound, the inhibition of growth at 4 ppm ([5]; 4.0 ppm alone) was 98%, the inhibition of growth at 4 ppm ([5]; 4.0 ppm) was 100% and the inhibition of growth at 0.8 ppm ([6]; Colletotrichum lindemuthianum, single active at 0.8 ppm, read-out: Efficacy %) was 1%. For the same compound, the inhibition of growth at 4 ppm ([6]; Colletotrichum lindemuthianum, single active at 4.0 ppm, read-out: Efficacy %) was 0%, the inhibition of growth at 20 ppm ([6]; Colletotrichum lindemuthianum, single active at 20.0 ppm, read-out: Efficacy %) was 16% and the inhibition of growth at 4 ppm ([7]; mixing partner alone) was 24%. For the same compound, the inhibition of growth at 20 ppm ([7]; mixing partner alone) was 4%, the inhibition of growth at 4 ppm ([7]; single substance) was 0% and the inhibition of growth at 20 ppm ([7]; single substance) was 24%. It also gave an inhibition of growth at 0.8 ppm ([8]; Neocordana musae, 0.8 ppm, read-out: Efficacy) of 40%, an inhibition of growth at 4 ppm [9, 17] of 97% and an inhibition of growth at 20 ppm [9, 17] of 100%. It also gave an inhibition of growth at 0.8 ppm ([9]; Diaporthe citri, single active, 0.8 ppm, read-out: Efficacy) of 0%, an inhibition of growth at 4 ppm [9, 18] of 97% and an inhibition of growth at 20 ppm [9, 18] of 100%. The inhibition of growth at 0.8 ppm ([10]; Fusarium culmorum, 0.8 ppm, alone, read-out: Efficacy) was 5%, the inhibition of growth at 0.8 ppm ([10]; Fusarium culmorum, single active compound, 0.8 ppm, read-out: Efficacy) was 8% and the inhibition of growth at 4 ppm ([10]; Fusarium culmorum, single active compound, 4 ppm, read-out: Efficacy) was 16%. For the same compound, the inhibition of growth at 20 ppm ([10]; Fusarium culmorum, single active compound, 20 ppm, read-out: Efficacy) was 24%, the Efficacy ([11]; 0.8 ppm) was 100% and the Efficacy ([11]; 20.0 ppm) was 100%. It also gave an inhibition of growth at 0.8 ppm ([12]; 0.8 ppm) of 18%, an inhibition of growth at 4 ppm ([12]; 4 ppm) of 42% and an inhibition of growth at 20 ppm ([12]; 20 ppm) of 49%. The inhibition of growth at 0.8 ppm ([13]; Colletotrichum coccodes, single active compound at 0.8 ppm, read-out: Efficacy %) was 25%.
Compound mancozeb [(5.013) mancozeb] has an Efficacy ([2]; 0.8 ppm) of 4%, an Efficacy ([2]; 4 ppm) of 36% and an Efficacy ([2]; 20 ppm) of 63%. The Efficacy ([3]; 0.4 ppm) was 0%, the Efficacy ([3]; 2.0 ppm) was 0% and the Efficacy ([3]; 10.0 ppm) was 33%. For the same compound, the Efficacy % ([3]; alone, 0.8 ppm) was 15%, the Efficacy % ([3]; alone, 4.0 ppm) was 0% and the Efficacy % ([3]; alone, 20.0 ppm) was 15%. The Efficacy % ([3]; alone, 100.0 ppm) was 83%, the Efficacy % ([4]; 0.8 ppm, alone) was 0% and 4% and the Efficacy % ([5]; 0.08 ppm) was 4% and 0%. The Efficacy % ([5]; 0.08 ppm alone) was 0%, the Efficacy % ([5]; 0.4 ppm alone) was 0% and the Efficacy % ([5]; 2.0 ppm) was 100%. The Efficacy % ([5]; 2.0 ppm alone) was 100%, the Efficacy % ([5]; 10.0 ppm) was 100% and the Efficacy % ([5]; 10.0 ppm, alone) was 100%. It also gave an Efficacy % [14] of 0%, an Efficacy % ([6]; single active at 0.08 ppm) of 4% and an Efficacy % ([6]; single active at 0.4 ppm) of 0%. The Efficacy % ([6]; single active at 10.0 ppm) was 100%, the Efficacy % ([7]; single substance, 0.08 ppm) was 0% and the Efficacy % ([7]; single substance, 0.4 ppm) was 0% and 3%. For the same compound, the Efficacy % ([7]; single substance, 2.0 ppm) was 31% and 32%, the Efficacy % ([7]; single substance, 10.0 ppm) was 100% and the Efficacy ([8]; 0.8 ppm) was 0%. For the same compound, the Efficacy ([8]; 4 ppm) was 14% and 19%, the Efficacy ([8]; 20 ppm) was 100% and the Efficacy ([9]; Table F10, 0.08 ppm alone) was 0%. The Efficacy ([9]; Table F10, 0.4 ppm alone) was 46%, the Efficacy ([9]; Table F10, 2.0 ppm alone) was 100% and the Efficacy ([9]; Table F10, 10.0 ppm alone) was 100%. For the same compound, the Efficacy ([9]; applied alone, 0.08 ppm) was 6%, the Efficacy ([9]; applied alone, 0.4 ppm) was 21% and the Efficacy ([9]; applied alone, 2.0 ppm) was 100%. The Efficacy ([9]; applied alone, 10.0 ppm) was 100%, the Efficacy ([9]; single active, 0.08 ppm) was 2% and the Efficacy ([9]; single active, 0.4 ppm) was 0%. It also gave an Efficacy ([9]; single active, 2.0 ppm) of 46%, an Efficacy ([9]; single active, 10.0 ppm) of 100% and an Efficacy ([15]; 0.8 ppm alone) of 0%. For the same compound, the Efficacy ([15]; 4 ppm alone) was 78%, the Efficacy ([15]; 20 ppm alone) was 99% and the Efficacy ([10]; single active compound, 0.8 ppm) was 0%. The Efficacy ([10]; single active compound, 4 ppm) was 16%, the Efficacy ([10]; single active compound, 20 ppm) was 50% and 31% and the Efficacy ([11]; 0.08 ppm) was 0%. The Efficacy ([11]; 0.4 ppm) was 5%, the Efficacy ([11]; 2.0 ppm) was 37% and the Efficacy ([11]; 10.0 ppm) was 100%. It also gave an Efficacy % ([16]; 0.08 ppm) of 3%, an Efficacy % ([16]; 0.4 ppm) of 0% and an Efficacy % ([16]; 2.0 ppm) of 10%. For the same compound, the Efficacy % ([16]; 10.0 ppm) was 98%, the Efficacy % ([13]; single active compound at 0.8 ppm) was 0% and the Efficacy % ([13]; single active compound at 4 ppm) was 0%. It also gave an Efficacy % ([13]; single active compound at 20 ppm) of 100%.
